Molecular target: T1, PHD2 (Homo sapiens, UniProt Q9GZT9)
T1 construct: FLAG-tagged full length PHD2expressed in and purified from baculovirus-infected Sf9 cells; FLAG; made in house; host or cells: baculovirus-infected Sf9 cells
Assay: Assay for HIF-PHD2 Catalytic Activity (time resolved fluorescence, VHL complex detection)
Assay type: biochemical
Conditions: FLAG-tagged full length PHD2; 0.2 μM 2-oxoglutarate, 0.5 μM HIF-1α peptide; read-out: PHD2 Binding Activity IC50
Procedure: Assay for HIF-PHD2Catalytic Activity To each well of a 96-well plate was added 1 μL of test compound in DMSO and 20 μl of assay buffer (50 mM Tris pH 7.4/0.01% Tween-20/0.1 mg/ml bovine serum albumin/10 μM ferrous sulfate/1mM sodium ascorbate/20 μg/ml catalase) containing 0.15 μg/ml FLAG-tagged full length PHD2expressed in and purified from baculovirus-infected Sf9 cells. After a 30 min preincubation at room temperature, the enzymatic reactions were initiated by the addition of 4 μL of substrates (final concentrations of 0.2 μM 2-oxoglutarate and 0.5 μM HIF-1α peptide biotinyl-DLDLEMLAPYJPMDDDFQL).

T1 sequence (Q9GZT9 whole entry): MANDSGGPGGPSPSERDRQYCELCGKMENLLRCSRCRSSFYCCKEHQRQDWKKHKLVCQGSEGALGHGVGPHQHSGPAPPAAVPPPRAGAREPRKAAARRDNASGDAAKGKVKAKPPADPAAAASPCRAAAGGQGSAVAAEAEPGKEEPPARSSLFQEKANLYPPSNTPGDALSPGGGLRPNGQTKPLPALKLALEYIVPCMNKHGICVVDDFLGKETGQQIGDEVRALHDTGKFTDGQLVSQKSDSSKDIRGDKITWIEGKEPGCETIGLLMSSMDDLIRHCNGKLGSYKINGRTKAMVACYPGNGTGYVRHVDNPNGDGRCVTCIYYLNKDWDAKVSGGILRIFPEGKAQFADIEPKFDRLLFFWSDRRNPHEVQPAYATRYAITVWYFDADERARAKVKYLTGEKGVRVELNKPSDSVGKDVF

Row | IC50 [µM] | Structure (SMILES)
1 | < 0.01 | O=C(O)CNC(=O)c1c(O)c2c(n(Cc3ccc(-c4ccc(F)cc4)cc3)c1=O)COC2 [Example 31]
2 | < 0.01 | CC1OCc2c1c(O)c(C(=O)NCC(=O)O)c(=O)n2Cc1ccc(C(F)(F)F)cc1 (stereo not drawn) [Example 13, N-({4-hydroxy-5-methyl-2-oxo-1-[4-(trifluoromethyl)benzyl]-1,2,5,7-tetrahydrofuro[3,4-b]pyridin-3-yl}carbonyl)glycine]
3 | < 0.01 | O=C(O)CNC(=O)c1c(O)c2c(n(Cc3ccc(-c4ccc(Cl)cc4)cc3)c1=O)COC2 [Example 30]
4 | < 0.01 | O=C(O)CNC(=O)c1c(O)c2c(n(Cc3ccn(-c4ccc(F)cc4)n3)c1=O)COC2 [Example 22]
5 | < 0.01 | O=C(O)CNC(=O)c1c(O)c2c(n(Cc3ccc(-c4ccccc4OCC(F)(F)F)cc3)c1=O)COC2 [Example 34, N-[(4-hydroxy-1-{[2′-(2,2,2-trifluoroethoxy)biphenyl-4-yl]methyl}-2-oxo-1,2,5,7-tetrahydrofuro[3,4-b]pyridin-3-yl}carbonyl)glycine]
6 | < 0.01 | Cn1cc(-c2ccc(Cn3c4c(c(O)c(C(=O)NCC(=O)O)c3=O)COC4)cn2)cn1 [Example 43, N-[(4-hydroxy-1-{[6-(1-methyl-1H-pyrazol-4-yl)pyridin-3-yl)methyl}-2-oxo-1,2,5,7-tetrahydrofuro[3,4-b]pyridin-3-yl)carbonyl]glycine]
7 | < 0.01 | O=C(O)CNC(=O)c1c(O)c2c(n(Cc3ccc(-c4ccccc4)nc3)c1=O)COC2 [Example 41, N-({4-hydroxy-2-oxo-1-[(6-phenylpyridin-3-yl)methyl]-1,2,5,7-tetrahydrofuro[3,4-b]pyridin-3-yl}carbonyl)glycine]
8 | < 0.01 | O=C(O)CNC(=O)c1c(O)c2c(n(Cc3ccc(-c4ccc(F)cc4Cl)cc3F)c1=O)COC2 [Example 39]
9 | < 0.01 | O=C(O)CNC(=O)c1c(O)c2c(n(Cc3ccc(-c4ccc(Cl)cc4Cl)cc3)c1=O)COC2 [Example 35]
10 | < 0.01 | O=C(O)CNC(=O)c1c(O)c2c(n(Cc3ccc(-c4cc(F)ccc4F)nc3)c1=O)COC2 [Example 45, N-[(1-{[6-(2,5-difluorophenyl)pyridin-3-yl]methyl}-4-hydroxy-2-oxo-1,2,5,7-tetrahydrofuro[3,4-b]pyridin-3-yl)carbonyl]glycine]
11 | < 0.01 | O=C(O)CNC(=O)c1c(O)c2c(n(Cc3nc4ccccc4s3)c1=O)COC2 [Example 1, N-{[1-(1,3-benzothiazol-2-ylmethyl)-4-hydroxy-2-oxo-1,2,5,7-tetrahydrofuro[3,4-b]-pyridin-3-yl]carbonyl}glycine]
12 | < 0.01 | O=C(O)CNC(=O)c1c(O)c2c(n(Cc3ccc(-c4ccccc4Cl)nc3)c1=O)COC2 [Example 29]
13 | < 0.01 | O=C(O)CNC(=O)c1c(O)c2c(n(Cc3ccc(OCC(F)(F)F)nc3)c1=O)COC2 [Example 19, N-[(4-hydroxy-2-oxo-1-{[6-(2,2,2-trifluoroethoxy)pyridin-3-yl]methyl}-1,2,5,7-tetrahydrofuro[3,4-b]pyridin-3-yl)carbonyl]glycine]
14 | < 0.01 | O=C(O)CNC(=O)c1c(O)c2c(n(Cc3ccc(OC(F)F)cc3)c1=O)COC2 [Example 17, N-{[1-(4-difluoromethoxybenzyl)-4-hydroxy-2-oxo-1,2,5,7-tetrahydrofuro[3,4-b]pyridin-3-yl]carbonyl}glycine]
15 | < 0.01 | Cc1ccccc1-n1ccc(Cn2c3c(c(O)c(C(=O)NCC(=O)O)c2=O)COC3)n1 [Example 20, N-[(4-hydroxy-1-{[1-(2-methylphenyl)-1-H-pyrazol-3-yl]methyl}-2-oxo-1,2,5,7-tetrahydrofuro[3,4-b]pyridin-3-yl)carbonyl]glycine]
16 | < 0.01 | O=C(O)CNC(=O)c1c(O)c2c(n(Cc3noc(-c4ccccc4)n3)c1=O)COC2 [Example 5, N-({4-hydroxy-2-oxo-1-[(5-phenyl-1,2,4-oxadiazol-3-yl)methyl]-1,2,5,7-tetrahydrofuro[3,4-b]pyridin-3-yl}carbonyl)glycine]
17 | < 0.01 | COC(=O)c1ccccc1-c1ccc(Cn2c3c(c(O)c(C(=O)NCC(=O)O)c2=O)COC3)cc1 [Example 36, N-[(4-hydroxy-1-{[2′-(methoxycarbonyl)biphenyl-4-yl]methyl}-2-oxo-1,2,5,7-tetrahydrofuro[3,4,-b]pyridin-3-yl}carbonyl)glycine]
18 | < 0.01 | O=C(O)CNC(=O)c1c(O)c2c(n(Cc3ccc(-c4ccccc4C(F)(F)F)cc3)c1=O)COC2 [Example 33, N-[(4-hydroxy-2-oxo-1-{[2′-(trifluoromethyl)biphenyl-4-yl]methyl}-1,2,5,7-tetrahydrofuro[3,4-b]pyridin-3-yl}carbonyl)glycine]
19 | < 0.01 | CC(C)Oc1ccc(Cn2c3c(c(O)c(C(=O)NCC(=O)O)c2=O)COC3)cc1 [Example 8, N-{[4-hydroxy-1-(4-isopropoxybenzyl)-2-oxo-1,2,5,7-tetrahydrofuro[3,4-b]pyridin-3-yl]carbonyl}glycine]
20 | < 0.01 | O=C(O)CNC(=O)c1c(O)c2c(n(Cc3cccnn3)c1=O)COC2 [Example 4, N-{[4-hydroxy-2-oxo-1-(pyridazin-3-ylmethyl)-1,2,5,7-tetrahydrofuro[3,4-b]pyridin-3-yl]carbonyl}glycine]
21 | < 0.01 | O=C(O)CNC(=O)c1c(O)c2c(n(Cc3ccc(-c4ccccc4F)nc3)c1=O)COC2 [Example 49, N-[(1-{[6-(2-fluorophenyl)pyridin-3-yl]methyl}-4-hydroxy-2-oxo-1,2,5,7-tetrahydrofuro[3,4-b]pyridin-3-yl)carbonyl]glycine]
22 | < 0.01 | O=C(O)CNC(=O)c1c(O)c2c(n(Cc3ccc(-c4cc(Cl)cc(Cl)c4)nc3)c1=O)COC2 [Example 42, N-[(1-{[6-(3,5-dichlorophenyl)pyridin-3-yl]methyl}-4-hydroxy-2-oxo-1,2,5,7-tetrahydrofuro[3,4-b]pyridin-3-yl)carbonyl]glycine]
23 | < 0.01 | O=C(O)CNC(=O)c1c(O)c2c(n(Cc3cnc(-c4ccc(F)cc4F)cn3)c1=O)COC2 [Example 51, N-[(1-{[5-(2,4-difluorophenyl)pyrazin-2-yl]methyl}-4-hydroxy-2-oxo-1,2,5,7-tetrahydrofuro[3,4-b]pyridin-3-yl)carbonyl]glycine]
24 | < 0.01 | O=C(O)CNC(=O)c1c(O)c2c(n(Cc3ccc(-c4ccc(F)cc4Cl)cc3)c1=O)COC2 [Example 37]
25 | < 0.01 | O=C(O)CNC(=O)c1c(O)c2c(n(CC3Cc4ccccc4C3)c1=O)COC2 [Example 11, N-{[1-(2,3-dihydro-1H-inden-2-ylmethyl)-4-hydroxy-2-oxo-1,2,5,7-tetrahydrofuro[3,4-b]pyridin-3-yl]carbonyl}glycine]
26 | < 0.01 | O=C(O)CNC(=O)c1c(O)c2c(n(Cc3ccc(-c4ccc(F)cc4Cl)nc3)c1=O)COC2 [Example 50, N-[(1-{[6-(2-chloro-4-fluorophenyl)pyridin-3-yl]methyl}-4-hydroxy-2-oxo-1,2,5,7-tetrahydrofuro[3,4-b]pyridin-3-yl)carbonyl]glycine]

Row | Structure (SMILES) | IC50 [µM]
27 | Cc1nn(-c2ccccc2)nc1Cn1c2c(c(O)c(C(=O)NCC(=O)O)c1=O)COC2 [Example 21, N-({4-hydroxy-1-[(5-methyl-2-phenyl-2H-1,2,3-triazol-4-yl)methyl]-2-oxo-1,2,5,7-tetrahydrofuro[3,4-b]pyridin-3-yl}carbonyl)glycine] | < 0.01
